Source: patent US8003331B2, “Method for identifying target protein of drug and method for screening therapeutic agent for diabetes using the target protein” (Astellas Pharma Inc., priority 2005, dated 2011)
Entries after “also recorded” stand apart in the source; their conditions may differ.

Experiments:
human ATP5B [1] = target: T1, human ATP5B (Homo sapiens, UniProt P06576); test: GST-DHFR / MTX-phenformin GST pull-down of 35S-labeled ATP5B; type: binding
T1 construct: an attempt was made to amplify complete length cDNA of human ATP5B; made in house; host or cells: cell-free: TNT Quick Coupled Transcription/Translation System (Promega) from pcDNA-ATP5B; GST-DHFR from E. coli BL21
Protocol: Promega) and 0.74 MBq of a radioisotope (redivue Pro-mix L-[35S]; Amersham) and in accordance with the protocols attached thereto. A 15 μl portion of this human ATP5B protein preparation liquid and 1 μg for each of the GST protein or GST-DHFR, purified on the glutathione Sepharose beads, were mixed and shaken at 4° C. for 1 hour after adding 0.3 ml of buffer A thereto. Thereafter, the protein binding to the GST protein or GST-DHFR on beads was co-precipitated by centrifugation. After repeating this operation 4 times, proteins in the precipitate were separated by SDS polyacrylamide gel electrophoresis in accordance with a conventionally known method, and the protein bound to the probe was detected by an autoradiography.

db/db mouse = test: blood sugar level and blood lactic acid level in db/db mouse after intraperitoneal administration; type: in vivo; settings: db/db mice, fasting, metformin 300 mg/kg; for blood lactic acid level: compound 100 mg/kg, 0, 90, 180 minutes; for hypoglycemic action (blood sugar level): compound 100 mg/kg, 90 and 180 minutes, vs vehicle group
Source text: As described in the aforementioned Example 6, the compound A and compound B found by the screening method of the present invention have the ability to activate AMPK in cells. Next, whether or not these compounds have the in vivo hypoglycemic action similar to the case of biguanide was examined. At the same time, action of the aforementioned 2 compounds on the increase of blood lactic acid value as an adverse side effect of biguanide was also examined. A total of 15 animals of 11 weeks of age of db/db mouse (BKS.Cg-+Leprdb/+Leprdb/Jcl; CLEA Japan) as a diabetes model mouse were divided into 3 groups, each consisting of 5 animals. […] They were subjected to fasting at the same time with the administration, and blood samples were collected from the tail of each animal 0 minute, 90 minutes and 180 minutes thereafter to measure blood sugar level and blood lactic acid level. The blood sugar level was measured using a simplified blood sugar analyzer (Acu Check Active II; Roche), and the blood lactic acid level was measured using a simplified lactic acid analyzer (Lactate Pro; Arkray Marketing), respectively. In the same manner, 12 animals of the db/db mouse of 18 weeks of age were divided in 3 groups, 4 animals for each. […] In the same manner as the above, they were subjected to fasting at the same time with the administration, and the blood sugar level and blood lactic acid level were respectively measured 0 minute, 90 minutes and 180 minutes thereafter in the same as described in the above.

AMPK = AMPK activation ability detection in HeLa S3 cell (anti-phospho AMPK western blotting); type: cell-based, human; settings: phenformin 1 mM, 1 hr; for phosphorylation level (activation) of AMPK: HeLa S3 cell without ATP5B over-expression (empty vector- or pcDNA-LKB1-transferred), concentration of compounds A and B not given; for activation of AMPK in cell over-expressing human ATP5B: pcDNA-ATP5B-transferred HeLa S3 cell, metformin 10 mM
Protocol: This expression plasmid pcDNA-LKB1 and the pcDNA-ATP5B prepared in the aforementioned Example 5(1) or an empty vector (pcDNA3.1) (Invitrogen) were transferred into HeLa S3 cell. The HeLa S3 cell (ATCC) was cultured in a 6 well culture plate (35 mm in well diameter) until it reached a state of 70% confluent, by adding 2 ml of a minimum essential medium DMEM (Gibco) containing 10% fetal bovine serum (Sigma) to each well of the culture plate. The medium was substituted by 1 ml per well of a serum-free medium OPTI MEM I (Invitrogen), and 3.0 μg/well of each of the empty vector (pcDNA3.1), pcDNA-LKB1 and pcDNA-ATP5B was transiently transferred using Lipofect amine 2000 (Invitrogen). After 12 hours of the culturing, this was substituted by 2 ml/well of DMEM containing 10% of fetal bovine serum from which low molecular substances had been removed by a charcoal treatment, and further cultured for 36 hours. This was further cultured for 1 hour (1 hr) under a condition of adding phenformin (Sigma) to a final concentration of 1 mM or the solvent (DMSO) alone. The medium was discarded, the cells were washed with a phosphate buffer (to be referred to as PBS hereinafter, and then the cells were lysed by adding 0.15 ml of the aforementioned buffer A (however, the NaCl concentration was 150 mM, and various phosphatase inhibitors; 2 mM Na3VO4, 10 mM NaF, 25 mM β-glycerophosphate, 0.2 mM Na2MoO4, 20 nM okadaic acid, were added). The activity of AMPK in the cells was detected at the level of phosphorylation of molecules by a conventionally known SDS electrophoresis and a western blotting which uses an anti-phosphorylation AMPK antibody (Phospho-AMPK-α(Thr172) Antibody, Daiichi Pure Chemicals). In this case, in order to confirm that there is no difference in the amount of protein of AMPKα (an AMPK subunit which undergoes phosphorylation) among samples, a western blotting which uses an anti-AMPKα antibody (Daiichi Pure Chemicals) was simultaneously carried out. […] However, in the cell in which human ATP5B was expressed by transferring pcDNA-ATP5B, activation of AMPK by phenformin treatment was not found.

human ATP5B [2] = target: T1, human ATP5B; test: competitive inhibition of binding of ATP5B and MTX-phenformin; settings: MTX-phenformin 10 μM; free phenformin 10 μM; compounds A and B 'addition of 10'
TNF-α = TNF-α gene expression in HeLa S3 cell (real time PCR, corrected by β-actin); type: cell-based, human; settings: okadaic acid 50 nM
Protocol: The pcDNA-TARDBP or an empty vector (pcDNA3.1) (Invitrogen) was transferred into HeLa S3 cell. Illustratively, the HeLa S3 cell (ATCC) was firstly cultured in a 12 well culture plate until it reached a state of 70% confluent, by adding 1 ml of a minimum essential medium DMEM (Gibco) containing 10% fetal bovine serum (Sigma) to each well of the culture plate. The medium was substituted by 0.5 ml per well of a serum-free medium OPTI MEM I (Invitrogen), and 0.8 μg/well of the pcDNA-TARDBP or pcDNA3.1 was transiently transferred using Lipofect amine 2000 (Invitrogen). After 12 hours of the culturing, this was substituted by 1 ml/well of DMEM containing 10% of fetal bovine serum and further cultured for 12 hours. This was further cultured for 16 hours under a condition of adding or not adding okadaic acid (Wako Pure Chemical Industries) to a final concentration of 50 nM. In this case, […] was added a part of the cells simultaneously with the okadaic acid treatment. The medium was discarded, the cells were washed twice with ice-cooled PBS, and then these cells were frozen and stored at −80° C.
Total RNA was prepared from each cell frozen in the aforementioned Example 9(2), using a reagent for RNA extraction use (Isogen; Nippon Gene) and in accordance with the instructions attached thereto. The thus prepared each total RNA was then treated with a deoxyribonuclease (Nippon Gene), subjected to phenol/chloroform treatment and ethanol precipitation and dissolved in sterile water. Using 1 μg of this total RNA, its reverse transcription into a single-stranded cDNA was carried out in a system of 20 μl using a kit for reverse transcription reaction use (Advantage™ RT-for-PCR Kit; Clontech).
Six oligonucleotides (SEQ ID NO:97 to SEQ ID NO:102) were designed and synthesized as primers of PCR for the measurement of gene expression quantity. A combination of SEQ ID NO:97 and SEQ ID NO:98 was used for human β-actin gene, and a combination of SEQ ID NO:99 and SEQ ID NO:100 for human TNF-α gene, and a combination of SEQ ID NO:101 and SEQ ID NO:102 for human TARDBP gene, respectively. […]
The expression quantities of human TNF-α gene and human TARDBP gene in each sample were corrected by the expression quantity of β-actin gene based on the following equation. [Corrected expression quantity of TNF-α or TARDBP]=[expression quantity of TNF-α or TARDBP gene (raw data)/[expression quantity of β-actin gene (raw data)]
In comparing the expression quantities of TNF-α and TARDBP genes, relative amounts were calculated by regarding the expression quantity in a cell, into which an empty vector (pcDNA3.1) was transferred and which was treated only with the solvent (DMSO), as 100, with the results sown in FIG. 9 and FIG. 10. […]

Row | SMILES | binding with human ATP5B (band of about 60 kDa, autoradiography) (human ATP5B [1]; 10 μM MTX-phenformin fixed to GST-DHFR, wild type ATP5B) | binding to the ATP5B protein with increasing concentration (human ATP5B [1]; MTX-phenformin 1.0, 10, 100 μM) | blood lactic acid level (db/db mouse) | hypoglycemic action (blood sugar level) (db/db mouse) | phosphorylation level (activation) of AMPK (AMPK) | activation of AMPK in cell over-expressing human ATP5B (AMPK) | influence on binding of ATP5B and MTX-phenformin (human ATP5B [2]) | action to accelerate expression of TNF-α (TNF-α; TARDBP high expression cell, compared with control cell) | increase of expression of TNF-α (TNF-α; control cell (empty vector HeLa S3), 16 hours)
1 | CN(Cc1cnc2nc(N)nc(N)c2n1)c1ccc(C(=O)N[C@@H](CCC(=O)NCCCNC(=N)NC(=N)N)C(=O)O)cc1.Cl.Cl [MTX-phenformin, (2S)-5-[(3-{[{[amino(imino)methyl]amino}(imino)methyl]amino}propyl)amino]-2-({4-[[(2,4-diaminopteridin-6-yl)methyl](methyl)amino]benzoyl}amino)-5-oxopentanonic acid dihydrochloride] | detected in the form of binding to the GST-DHFR, only under the condition of adding the MTX-phenformin | clearly detected |  |  |  |  |  |  | 
2 | Oc1ccccc1/C=N/c1nc[nH]n1 [compound A, 2-[(E)-(1H-1,2,4-triazol-3-ylimino)methyl]phenol] |  |  | did not induce increase; also recorded: without causing in vivo accumulation of lactic acid | hypoglycemic action after 90 minutes and 180 minutes having a significant difference; also recorded: show hypoglycemic action | significant AMPK activation ability | disappeared | obstruct binding of ATP5B and MTX-phenformin |  | 
3 | Nc1nc(Cl)c2nc[nH]c2n1 [compound B, 6-chloro-9H-purine-2-amine] |  |  |  | hypoglycemic action after 90 minutes and 180 minutes having a significant difference; also recorded: show hypoglycemic action | significant AMPK activation ability | disappeared | obstruct binding of ATP5B and MTX-phenformin |  | 
4 | CN(C)C(=N)N=C(N)N [metformin] |  |  | significant increase | significant hypoglycemic action |  | not found |  |  | 
5 | C=C1[C@@H](O)[C@@H]2O[C@]3(CC[C@H](/C=C/[C@@H](C)[C@@H]4CC(C)=C[C@@]5(O[C@H](C[C@@](C)(O)C(=O)O)CC[C@H]5O)O4)O3)CC[C@H]2O[C@@H]1[C@@H](O)C[C@H](C)[C@H]1O[C@@]2(CCCCO2)CC[C@H]1C [okadaic acid] |  |  |  |  |  |  |  | almost the same | up to 80 times
